Where two headings read alike, the source gives them in different places.

Data set [1] concerns the target phosphodiesterase enzyme type 5 (PDE5) (Homo sapiens, UniProt O76074). In words: In vitro enzyme assay (Transcreener fluorescence polarization). It is filed as biochemical. Conditions: 10-dose, 3-fold serial dilution starting at 50 uM. As for the experimental part:
Tested compounds (series B, D, E and G) were tested against phosphodiesterase enzyme type 5 (PDE5) in order to investigate their inhibitory activities. The in vitro enzyme assay was conducted using Transcreener Fluorescence polarization assay to detect the reaction product GMP. The compounds were suspended in DMSO to make 10 mM stock solutions. The procedure was conducted using the following buffer system; 10 mM Tris, pH 7.5, 5 mM MgCl2, 0.01% Brij 35, 1 mM DTT and 1% DMSO. […] The tested samples were added into the enzyme by Acoustic Technology. The substrate was added and incubated for 1 h. Fluorescence polarization (FP) was measured after 90 min incubation at rt and mP was calculated. Data were analyzed based on the GMP standard curve.

Data set [2] concerns PDE5. Conditions: training set, supplement reference list, read-out: PDE5 IC50 Experimental, cited from earlier work.

With `O=C(Cc1nc2ncccc2[nH]c1=O)NNC(=O)Nc1ccccc1` [Compound 5a], the melting point fell in the range of 218 to 220 °C.
`O=C(Cc1nc2ncccc2[nH]c1=O)NNC(=O)Nc1ccc(Cl)cc1` [Compound 5b] returned a melting point of 230 to 232 °C.
On the same count and under the same terms, the figure for `O=C(Cc1nc2ncccc2[nH]c1=O)NNC(=S)Nc1ccccc1` [Compound 5c] is 234 to 236 °C.
On to `O=C(Cc1nc2ncccc2[nH]c1=O)N/N=C/c1ccccc1` [Compound 6a], for which the melting point was in the range of 228 to 230 °C. For the same molecule, inhibition in data set [1] was half-maximal at 59.1 nM (IC50).
On to `O=C(Cc1nc2ncccc2[nH]c1=O)N/N=C/c1ccc([N+](=O)[O-])cc1` [Compound 6b], for which the IC50 in data set [1] was 67.9 nM.
Turning to `COc1ccc(/C=N/NC(=O)Cc2nc3ncccc3[nH]c2=O)cc1` [Compound 6c], the melting point lay within 222 to 224 °C. Moreover, the IC50 in data set [1] was determined as 47 nM.
In turn, `O=C(Cc1nc2ncccc2[nH]c1=O)NN1C(=O)CCC1=O` [Compound 7a] gave a melting point of 210 to 212 °C.
Still for that read-out and setting: under `O=C(Cc1nc2ncccc2[nH]c1=O)NN1C(=O)C=CC1=O` [Compound 7b] stands 213 to 215 °C; under `O=C(Cc1nc2ncccc2[nH]c1=O)NN1C(=O)c2ccccc2C1=O` [Compound 7c], 211 to 213 °C.
`CCN(CC)Cc1nc2ncccc2[nH]c1=O` [Compound 8a] registered a melting point of 262 to 263 °C. The same molecule came in with an IC50 in data set [1] of 93.8 nM.
Taken in the same sequence, the figures for `O=c1[nH]c2cccnc2nc1CN1CCCCC1` [Compound 8b] were 277 to 279 °C and 44.6 nM.
Taken in the same sequence, the figures for `O=c1[nH]c2cccnc2nc1CN1CCOCC1` [Compound 8c] were 234 to 235 °C and 89 nM.
The matching figures for `O=c1[nH]c2cccnc2nc1CNc1ccccc1` [Compound 8d]: 248 to 250 °C and 101 nM.
`Cc1cccc(NCc2nc3ncccc3[nH]c2=O)c1` [Compound 8f] yielded a melting point of 258 to 260 °C. The IC50 in data set [1] was 21 nM.
Molecule `Cc1ccc(NCc2nc3ncccc3[nH]c2=O)cc1` [Compound 8g] yielded a melting point of 284 to 286 °C.
The same measure, in the same setting: under `O=c1[nH]c2cccnc2nc1CNc1ccc(Cl)cc1` [Compound 8h] stands above 300 °C.
`O=c1[nH]c2cccnc2nc1CNc1ccc(Br)cc1` [Compound 8i] returned a melting point above 300 °C. Moreover, in data set [1], half-maximal inhibition (IC50) was put at 137 nM.
In the case of `O=c1[nH]c2cccnc2nc1CN(c1ccccc1)c1ccccc1` [Compound 8j], the melting point lay in the range of 292 to 293 °C.
In turn, `O=c1[nH]c2cccnc2nc1CN/N=C/c1ccccc1` [Compound 9a] came in with a melting point of 234 to 236 °C. The molecule further gave a 50% inhibitory concentration (IC50) in data set [1] of 32.2 nM.
The matching figures for `O=c1[nH]c2cccnc2nc1CN/N=C/c1ccc(Cl)cc1` [Compound 9b]: 237 to 239 °C and 30.4 nM.
Taken in the same sequence, the figures for `O=c1[nH]c2cccnc2nc1CN/N=C/c1ccc([N+](=O)[O-])cc1` [Compound 9c] were 238 to 240 °C and 41.4 nM.
The matching figures for `COc1ccc(/C=N/NCc2nc3ncccc3[nH]c2=O)cc1` [Compound 9d]: 256 to 258 °C and 32.3 nM.
The molecule `C/C(=N\NCc1nc2ncccc2[nH]c1=O)c1ccccc1` [Compound 9e] gave a melting point of 230 to 233 °C. In data set [1], the concentration for half-maximal inhibition (IC50) was 29.4 nM.
Molecule `O=c1[nH]c2cccnc2nc1Cc1n[nH]c(=O)n1-c1ccccc1` [Compound 10a] gave a melting point of 220 to 222 °C.
On the same count and under the same terms, the figure for `O=c1[nH]c2cccnc2nc1Cc1n[nH]c(=S)n1-c1ccccc1` [Compound 10c] is 219 to 222 °C.
In turn, `CC(=O)N1N=C(Cc2nc3ncccc3[nH]c2=O)OC1c1ccccc1` (centres unmarked) [Compound 11a] yielded a melting point of 234 to 236 °C. The same molecule displayed an IC50 in data set [1] of 26.3 nM.
Taken in the same sequence, the figures for `CC(=O)N1N=C(Cc2nc3ncccc3[nH]c2=O)OC1c1ccc([N+](=O)[O-])cc1` (centres unmarked) [Compound 11b] were 240 to 242 °C and 18.1 nM.
In turn, `COc1ccc(C2OC(Cc3nc4ncccc4[nH]c3=O)=NN2C(C)=O)cc1` (centres unmarked) [Compound 11c] returned a melting point of 235 to 237 °C. The IC50 in data set [1] was determined as 31 nM.
Regarding `O=C1Nc2cccnc2N2C1=CNN=C2c1ccccc1` [Compound 12a], the melting point lay in the range of 219 to 221 °C.
On to `O=C1Nc2cccnc2N2C1=CNN=C2c1ccc(Cl)cc1` [Compound 12b], for which the melting point was 222 to 225 °C.
On the same count and under the same terms, under `O=C1Nc2cccnc2N2C1=CNN=C2c1ccc([N+](=O)[O-])cc1` [Compound 12c] stands 222 to 224 °C; under `COc1ccc(C2=NNC=C3C(=O)Nc4cccnc4N32)cc1` [Compound 12d], 229 to 231 °C.
As for `CCCc1nn(C)c2c(=O)[nH]c(-c3cc(S(=O)(=O)N4CCN(C)CC4)ccc3OCC)nc12` [t1, Sildenafil], the IC50 in data set [2] (ref [1]) was 2.2 nM.
Turning to `CCCc1nc(C)c2c(=O)[nH]c(-c3cc(S(=O)(=O)N4CCN(CC)CC4)ccc3OCC)nn12` [t2, Vardenafil], the IC50 in data set [2] (ref [1]) was […].
`CN1CC(=O)N2[C@H](c3ccc4c(c3)OCO4)c3[nH]c4ccccc4c3C[C@@H]2C1=O` [t3, Tadalafil]: the IC50 in data set [2] (ref [1]) was 1.2 nM.
On to `COc1ccc(CNC(=O)c2cc([N+](=O)[O-])ccc2NC(C)CO)cc1OC` (centres unmarked) [t5, Benzamidenafil], for which the IC50 in data set [2] (ref [3]) is 1.1 nM.
In the case of `COc1ccc(CN=c2[nH]c(N3CCC[C@H]3CO)ncc2C(=O)NCc2ncccn2)cc1Cl` [t6, Avanafil], in data set [2] (ref [5]), the IC50 is 5.2 nM.
Consider `CCCc1nn(C)c2c(=O)[nH]c(-c3cc(S(=O)(=O)N4CCN(CC)CC4)ccc3OCC)nc12` [t7, Homosildenafil], for which the IC50 in data set [2] (ref [5]) is 3.8 nM.
Take `CCCc1nn(C)c2c(=O)[nH]c(-c3cc(S(=O)(=O)N4CCN(CCO)CC4)ccc3OCC)nc12` [t8, Hydroxyhomosildenafil]: the IC50 in data set [2] (ref [5]) is 3.4 nM.
On to `CCCc1nn(C)c2c(=O)[nH]c(-c3cc(C(=O)CN4CCN(CC)CC4)ccc3OCC)nc12` [t9, Acetildenafil], for which the IC50 in data set [2] (ref [5]) was 7.6 nM.
In the case of `CCCc1nn(C)c2c(=O)[nH]c(-c3cc(C(=O)CN4CCN(CCO)CC4)ccc3OCC)nc12` [t10, Hydroxyacetildenafil], in data set [2] (ref [5]), the IC50 was 58.4 nM.
Take `CCCc1nn(C)c2c(=S)nc(-c3cc(S(=O)(=O)N4CCN(C)CC4)ccc3OCC)[nH]c12` [t11, Thiosildenafil]: the half-maximal inhibitory concentration (IC50) in data set [2] (ref [5]) was 0.6 nM.
As for `CCCOc1ccc(S(=O)(=O)NCCC2CCCN2C)cc1-c1nc2c(CCC)nn(C)c2c(=O)[nH]1` (centres unmarked) [t13, Udenafil], the half-inhibitory concentration (IC50) in data set [2] (ref [6]) is 8.3 nM.
Take `CCCc1nn(C)c2c(=S)nc(-c3cc(S(=O)(=O)N4C[C@@H](C)N[C@@H](C)C4)ccc3OCC)[nH]c12` [t15, Thioaildenafil]: the IC50 in data set [2] (ref [3]) is 0.6 nM.
Regarding `CCCc1nn(C)c2c(=O)[nH]c(-c3cc([N+](=O)[O-])ccc3OCC)nc12` [t16, Nitrodenafil], the IC50 in data set [2] (ref [3]) is 67.4 nM.
Regarding `CCCc1nn(C)c2c(=O)[nH]c(-c3cc(C(=O)CN4C[C@@H](C)N[C@@H](C)C4)ccc3OCC)nc12` [t17, Dimethylacetildenafil], the IC50 in data set [2] (ref [3]) is 51.2 nM.
On to `CCCOc1ccccc1-c1nc2nn[nH]c2c(=O)[nH]1` [t18, Zaprinast], for which the IC50 in data set [2] (ref [7]) was […].
For the molecule `NN1CC(=O)N2[C@H](c3ccc4c(c3)OCO4)c3[nH]c4ccccc4c3C[C@@H]2C1=O` [t116, Aminotadalafil], the IC50 in data set [2] (ref [5]) is 4.2 nM.
For Carbodenafil [t12], in data set [2] (ref [6]), the IC50 was 5.2 nM.
